Like-named read-outs stand apart in the source and are kept apart here.
What was measured:
[1] = Plasma pharmacokinetics after a single oral RK dose, male vs female mice; assay type: in vivo, C57BL/6J mice
[2] = assay type: in vivo, C57BL/6J mice; conditions: for Cmax: mean±SEM; for presence in the brain: brain of either sexes after oral RK
[3] = Plasma pharmacokinetics after a single oral RK dose, normal-weight; assay type: in vivo, C57BL/6J mice; conditions: for AUC(0-t): AUC (0–12 h); for half-life: T1/2 (elimination half-life)
[4] = assay type: in vivo, C57BL/6J mice; conditions: single oral RK 200 mg kg^−1; for half-life: T1/2 (elimination half-life)
[5] = Distribution in white adipose tissue; assay type: in vivo, C57BL/6J mice; conditions: epididymal WAT; for increase in WAT level in obese animals compared with normal-weight: between 15 and 30 min; for time within which considerable accumulation in WAT was observed: male mice, oral RK 200 mg kg^−1
[6] = assay type: in vivo; conditions: in 24 h, normal-weight male mice, preliminary dosing tests
[7] = Pl-F: plasma, female LFD mice, single oral RK 200 mg kg^−1
[8] = Pl-M: plasma, male LFD mice, single oral RK 200 mg kg^−1
[9] = Br-F: brain, female LFD mice, single oral RK 200 mg kg^−1
[10] = Br-M: brain, male LFD mice, single oral RK 200 mg kg^−1
[11] = Pl-N: plasma, normal-weight male mice, single oral RK 200 mg kg^−1
[12] = Pl-O: plasma, obese male mice, single oral RK 200 mg kg^−1
[13] = Br-N: brain, normal-weight male mice
[14] = female, C57BL/6J, mouse, plasma, po, 200 mg/kg
[15] = male, C57BL/6J, mouse, plasma, po, 200 mg/kg
[16] = female, C57BL/6J, mouse, brain, po, 200 mg/kg
[17] = male, C57BL/6J, mouse, brain, po, 200 mg/kg
[18] = male, C57BL/6J, mouse, plasma, po, 200 mg/kg, Pl-N: plasma, normal-weight male mice, single oral RK 200 mg kg^−1
[19] = male, C57BL/6J, mouse, plasma, po, 200 mg/kg, Pl-O: plasma, obese male mice, single oral RK 200 mg kg^−1
[20] = male, C57BL/6J, mouse, plasma, po, 200 mg/kg, Tmax, Pl-N: plasma, normal-weight male mice, single oral RK 200 mg kg^−1
[21] = male, C57BL/6J, mouse, brain, po, 200 mg/kg, Br-N: brain, normal-weight male mice
[22] = male, C57BL/6J, mouse, brain, po, 200 mg/kg, Br-O: brain, obese male mice
[23] = male, C57BL/6J, mouse, brain, po, 200 mg/kg, Tmax, Br-N: brain, normal-weight male mice

CC(O)CCc1ccc(O)cc1 (stereo not drawn) [ROH, raspberry alcohol]
AUC (0–12 h) [1, 7]: 158 ± 17.1 nmol/mL/min
Tmax [1, 7]: 25.0 ± 4.99 min
Cmax ([1]; Pl-F: plasma, female LFD mice, single oral RK 200 mg kg^−1, mean±SEM): 130 ± 12.7 µM
AUC (0–12 h) [1, 8]: 177 ± 11.8 nmol/mL/min
T1/2 (elimination half-life) [1, 8]: 63.2 ± 2.61 min
Tmax [1, 8]: 25.0 ± 4.99 min
Cmax [2, 9]: 21.6 ± 4.72 nmol/g
T1/2 (elimination half-life) [2, 10]: 32.0 ± 0.77 min
Tmax [2, 10]: 20.0 ± 5.0 min
Cmax [2, 10]: 21.0 ± 2.68 nmol/g
AUC (0–12 h) [3, 11]: 208 ± 22.0 nmol/mL/min
T1/2 (elimination half-life) [3, 11]: 66.1 ± 1.7 min
Tmax [3, 11]: 25.0 ± 5.0 min
T1/2 (elimination half-life) [3, 12]: 70.0 ± 1.5 min
Tmax [3, 12]: 50.0 ± 10.0 min
Cmax [4, 13]: 55.1 ± 8.12 nmol/g
T1/2 (elimination half-life) [4, 13]: 33.7 ± 2.2 min
Tmax [4, 13]: 20.0 ± 5.0 min
Cmax ([4]; Br-O: brain, obese male mice): 60.3 ± 6.6 nmol/g
Tmax ([4]; Br-O: brain, obese male mice): 40.0 ± 10.0 min
increase in WAT level in obese animals compared with normal-weight [5]: 30–90%
time within which considerable accumulation in WAT was observed [5]: ≤ 15 min

CC(=O)C=Cc1ccc(O)c(O)c1 [DHPhLiAce, 3,4-dihydroxybenzylideneacetone]
Tmax [1, 14]: 15 min
half-life [1, 14]: 30 ± 4.24 min
AUC(0-t) [1, 15]: 0.465 ± 0.046 µM·h
Tmax [1, 15]: 40 min
half-life [1, 15]: 41.4 ± 2.91 min
Cmax [2, 9]: 0.112 ± 0.042 nmol/g
Cmax [2, 10]: 0.067 ± 0.011 nmol/g
Tmax [2, 16]: 25 min
half-life [2, 16]: 35.8 ± 2.29 min
Tmax [2, 17]: 20 min
half-life [2, 17]: 33.4 ± 0.73 min
AUC(0-t) [3, 18]: 1.04 ± 0.16 µM·h
AUC(0-t) [3, 19]: 1.38 ± 0.04 µM·h
half-life [3, 18]: 41.6 ± 3 min
half-life [3, 19]: 48 ± 2.1 min
Tmax [3, 20]: 30 min
Cmax [4, 13]: 0.23 ± 0.012 nmol/g
half-life [4, 21]: 36.2 ± 1.6 min
half-life [4, 22]: 37.2 ± 0.22 min
Tmax [4, 23]: 30 min
time within which considerable accumulation in WAT was observed [5]: ≤ 15 min

O=C(O)CCc1cccc(O)c1 [3-(3-hydroxyphenyl)propionic acid]
presence in the brain [2]: not found

CC(=O)CCc1ccc(O)cc1 [RK, 4-(4-hydroxyphenyl)-2-butanone]
Tmax ([1]; both, C57BL/6J, mouse, plasma, po, 200 mg/kg): ~15 min
AUC(0-t) [1, 14]: 299 ± 20.2 µM·h
Cmax [1, 14]: 281 ± 17.1 µM
Tmax [1, 14]: 15 min
AUC(0-t) [1, 15]: 358 ± 34 µM·h
Tmax [1, 15]: 15 min
half-life [1, 15]: 78.4 ± 3.55 min
time of absorption and tissue accumulation ([1]; oral RK 200 mg kg^−1, this study): < 30 min
Cmax [2, 9]: 37.4 ± 8.73 nmol/g
Cmax [2, 10]: 28.9 ± 2.42 nmol/g
Tmax [2, 16]: 15 min
half-life [2, 16]: 28.3 ± 1.65 min
Tmax [2, 17]: 15 min
half-life [2, 17]: 25.7 ± 2 min
AUC(0-t) [3, 18]: 387 ± 25.6 µM·h
half-life [3, 18]: 73.3 ± 1.2 min
half-life [3, 19]: 94.7 ± 7.8 min
Tmax [3, 20]: 15 min
maximal circulating concentration ([3]; plasma, normal-weight mice): 236 nM
maximal circulating concentration ([3]; plasma, obese mice): 318 nM
twelve-hour plasma accumulation in obese animals as % of normal-weight ones ([3]; plasma, obese vs normal-weight): 152.2–197.6%
Cmax [4, 13]: 32.7 ± 4.34 nmol/g
Cmax ([4]; Br-O: brain, obese male mice): 46.7 ± 6.2 nmol/g
half-life [4, 21]: 39.5 ± 1.9 min
half-life [4, 22]: 41.5 ± 4 min
Tmax [4, 23]: 20 min
increase in WAT level in obese animals compared with normal-weight [5]: 30–90%
higher residual content in WAT of obese mice ([5]; between 30 min and 2 h, obese vs normal-weight): > 100%
time within which considerable accumulation in WAT was observed [5]: ≤ 15 min
clearance from the bloodstream [6]: > 99%

CC(=O)C=Cc1ccccc1 [benzylideneacetone]
presence in the brain [2]: not found

COc1cc(CCC(C)=O)ccc1O [VLAce, vanillylacetone]
Cmax [1, 14]: 9.94 ± 2.4 µM
Tmax [1, 14]: 15 min
AUC(0-t) [1, 15]: 31 ± 3.65 µM·h
Tmax [1, 15]: 25 min
half-life [1, 15]: 46.4 ± 2.1 min
Cmax [2, 9]: 1.49 ± 0.30 nmol/g
Cmax [2, 10]: 1.51 ± 0.15 nmol/g
half-life [2, 16]: 89.2 ± 10 min
Tmax [2, 17]: 15 min
half-life [2, 17]: 84.1 ± 3.55 min
AUC(0-t) [3, 18]: 61.2 ± 4.7 µM·h
half-life [3, 18]: 40.9 ± 4.8 min
half-life [3, 19]: 68.8 ± 17.3 min
Tmax [3, 20]: 25 min
Cmax [4, 13]: 2.07 ± 0.24 nmol/g
half-life [4, 21]: 44.4 ± 2.18 min
Tmax [4, 23]: 40 min
time within which considerable accumulation in WAT was observed [5]: ≤ 15 min

COc1cc(/C=C/C(=O)O)ccc1O [ferulic acid]
presence in the brain [2]: not found

OCCc1ccc(O)cc1 [4-HPE, 2-(4-hydroxyphenyl)ethanol]
AUC(0-t) [1, 14]: 98.7 ± 7.38 µM·h
Cmax [1, 14]: 43.6 ± 2.9 µM
Tmax [1, 14]: 40 min
AUC(0-t) [1, 15]: 108 ± 10.9 µM·h
Tmax [1, 15]: 50 min
half-life [1, 15]: 104 ± 2.1 min
Cmax [2, 9]: 1.28 ± 0.08 nmol/g
Cmax [2, 10]: 1.03 ± 0.14 nmol/g
Tmax [2, 16]: 20 min
Tmax [2, 17]: 15 min
half-life [2, 17]: 64.7 ± 7.78 min
AUC(0-t) [3, 18]: 20.7 ± 2.92 µM·h
AUC(0-t) [3, 19]: 28.7 ± 3.65 µM·h
half-life [3, 18]: 73 ± 4.7 min
half-life [3, 19]: 56.3 ± 8.8 min
Tmax [3, 20]: 20 min
Cmax [4, 13]: 6.14 ± 0.49 nmol/g
Cmax ([4]; Br-O: brain, obese male mice): 7.92 ± 1.60 nmol/g
half-life [4, 21]: 31.5 ± 4.38 min
half-life [4, 22]: 38.8 ± 2.56 min
Tmax [4, 23]: 25 min
time within which considerable accumulation in WAT was observed [5]: ≤ 15 min

COc1ccc(CCC(C)=O)cc1 [RK-Me, 4-(4-methoxy-phenyl)-2-butanone]
AUC(0-t) [1, 14]: 0.069 ± 0.01 µM·h
Cmax [1, 14]: 0.086 ± 0.022 µM
Tmax [1, 14]: 25 min
half-life [1, 14]: 31.4 ± 1.84 min
AUC(0-t) [1, 15]: 0.05 ± 0.005 µM·h
Tmax [1, 15]: 20 min
half-life [1, 15]: 26.7 ± 2.81 min
presence in the brain [2]: not found
AUC(0-t) [3, 18]: 0.039 ± 0.008 µM·h
AUC(0-t) [3, 19]: 0.047 ± 0.007 µM·h
half-life [3, 18]: 31 ± 5.6 min
half-life [3, 19]: 41.7 ± 1.2 min
Tmax [3, 20]: 20 min
time within which considerable accumulation in WAT was observed [5]: ≤ 15 min

OCCc1ccc(O)c(O)c1 [3,4-DHPE, 2-(3,4-dihydroxyphenyl)ethanol]
Cmax [1, 14]: 0.024 ± 0.002 µM
Tmax [1, 14]: 15 min
half-life [1, 14]: 63.6 ± 6.84 min
AUC(0-t) [1, 15]: 0.057 ± 0.006 µM·h
Tmax [1, 15]: 20 min
half-life [1, 15]: 41.8 ± 1.25 min
Cmax [2, 9]: 0.020 ± 0.006 nmol/g
Cmax [2, 10]: 0.021 ± 0.003 nmol/g
Tmax [2, 16]: 15 min
half-life [2, 16]: 20.3 ± 1.41 min
Tmax [2, 17]: 15 min
half-life [2, 17]: 21 ± 0.16 min
AUC(0-t) [3, 18]: 0.08 ± 0.006 µM·h
half-life [3, 18]: 48.9 ± 6.9 min
half-life [3, 19]: 51.7 ± 4.36 min
Tmax [3, 20]: 20 min
Cmax [4, 13]: 0.031 ± 0.003 nmol/g
Cmax ([4]; Br-O: brain, obese male mice): 0.025 ± 0.002 nmol/g
half-life [4, 21]: 35.5 ± 3.94 min
Tmax [4, 23]: 20 min

Source: article PMC7329366 (Molecular nutrition & food research, 2020)
